Columns and labels:
[1] = test system: GFP-HttQ74-3 cell line; format: cell-based; details: 100 uM, 5 hours exposure
From the text: FIG. 11. […] The 28Q-2 and 74Q-3 were used in most of our studies. The asterisk corresponds to a non-specific band that is detected by the GFP antibody. • B. Representative fluorescent images of GFP-HttPolyQ(28)-2 and GFP-HttPolyQ(74)-3 stable cell lines. Note that GFP fluorescence is located in both the cytoplasm and the nucleus, but that compact foci are only seen in the GFP-HttPolyQ(74)-3 cells. • C. Cells expressing expanded polyglutamine proteins are more sensitive to H2O2. The GFP-HftPolyQ(28)-2 and GFP-HttPolyQ(74)-3 stable cell lines were exposed to 200 μM concentration of H2O2 and after 5 hr, the cells were stained with both Hoechest 33342 and PI. […] Percentages of cell death calculated by determining the ratio of PI-positively stained cells to that of Hoechst-stained cells. […] Cell death was quantified as described in D above. • H. Representative images showing that ubiquilin-1 overexpression protects GFP-HttPolyQ(74)-3 expressing cells against serum withdrawal-induced cell death, in a dose-dependent manner. […] Bottom panel: Quantification of the spot intensity determined in three independent experiments.
Cell death was monitored either through examination of the nuclear morphology observed after Hoechst 33342 (1 μg/ml) staining, or through detecting the membrane selective permeability following 3 μM of propidium iodide (PI) staining. […]

[2] = test system: PS2 NTF; assay: Cycloheximide time course of PS2 fragment production in PS2 inducible cells with or without UBQLN1 transfection; format: cell-based, human; details: PS2 inducible cell lysates, densitometry
Description: (A) Time course experiment using ponA-induced PS2 cell line cultures transfected with or without UBQLN1 expression plasmids were treated with […] cycloheximide for 0-6 hours. Equal amounts of protein lysate were separated by 8.5% SDS-PAGE and subsequently immunoblotted with anti-UBQLN antibody. Transfected cells reveal a 4-fold increase in UBQLN1 levels. Next, the protein lysates were immunoblotted using anti-PS2 NH,-terminal antibody to detect FL and NTF PS2 levels, as indicated. Note both FL PS2 turnover and NTF production levels in transfected versus untransfected cell lysates.
(B) Same experiment as (A) except FL PS expression was not induced using PonA.
(C) Graphs showing relative levels of PS2 polypeptides in PS2 inducible cell lysates after densitometric analysis of the immunoreactive bands shown in panels A and B. The levels were calculated by normalization of the signals relative to that in Lane 1. The Microsoft Excel program was used to produce a best-fit line for each graph. […] However, this is completely opposite of NTF levels. UBQLN not only decreases NTF levels at every time-point in the experiment, but it also slows the rate of NTF production, as determined by measuring the slope of each line.
HeLa and HEK293 cells were grown in DMEM supplemented with 10% FBS. PS1 and S2 inducible cell lines were generated by transfection of the pERV-expressing HEK293 cell line (Stratgene, IaIolla, Calif.) with FL human PS2 cDNA under the control of ponasteroneA (PonA)-inducible cassette in plasmid pEGSH (Stratagene). Stable integration of the pEGSH plasmid was achieved by selection for hygromycin resistance. PS expression was induced by adding PonA (final cont. 10 pM) to the medium. For proteasome inhibition studies, cultures were treated with 40 uM MG132 (Calbiochem, San Diego, Calif.) for time periods as indicated. […]
To this end, protein synthesis was inhibited using cyclohexamide (CHX) and PS fragment production was monitored over a six-hour time period in UBQLN transfected and untransfected lysates that were either induced or uninduced for PS expression. […]

[3] = test system: Nicastrin; assay: UBQLN overexpression in PS inducible cells, Nicastrin immunoblot; format: cell-based; details: UBQLN overexpressed
From the text: (§1) (A) Examination of Nicastrin, Aph-1 and Pen-2 levels in PS1 cells lines that were either not induced (lanes 1 and 3) or induced with PonA (lanes 2 and 4) and either left untransfected (lanes 1 and 2) or transfected with UBQLN1 cDNA (lanes 3 and 4). Equivalent amounts of protein lysates were separated by 10% SDS-PAGE and immunoblotted with the appropriate antibodies. The filter was then reprobed an anti-actin to ensure equal loading. UBQLN overexpression decreases Pen-2 and Nicastrin levels.
(§2) Preparation of protein lysates, SDS-PAGE and immunoblotting of proteins were described previously. Primary antibodies used were rabbit anti-PS2 loop and rabbit anti-PS2 NH,-terminus, both raised to GST-PS2 fusion proteins; rabbit anti-ubiquilin [43] which reacts with UBQLN1 and UBQLN2 polypeptides; rat anti-PS1 NH2,-terminus (Chemicon International, Temecula, Calif.); rabbit anti-PS1 loop raised to GST-PS1 fusion proteins; goat anti-p27 and goat anti-actin (Santa Cruz Biotechnology, Santa Cruz, Calif.); mouse monoclonal anti-tubulin (Sigma-Aldrich, St. Louis, Mo.); rabbit anti-nicastrin (Abeam, Cambridge, Mass.), rabbit anti-Pen-2 (Zymed, San Francisco, Calif.); and rabbit anti-Aph-la (Covance, Berkeley, Calif.). […]

[4] = test system: Pen-2; assay: UBQLN overexpression in PS inducible cells, Pen-2 immunoblot; format: cell-based; details: induced lysates
From the text: as §1
(C) Densitometric analysis was used to quantify the extent of reduction. Each experiment was repeated more than three times.
as §2

[5] = test system: Aph-1; assay: UBQLN overexpression in PS inducible cells, Aph-1 immunoblot; format: cell-based; details: UBQLN overexpressed
From the text: as §1, §2

[6] = test system: PS2 NTF; assay: Pulse-chase of PS2 NTF turnover with or without UBQLN overexpression; format: cell-based; details: 35 hour chase, with vs without UBQLN overexpression

Compound	cell death [1]	FL PS2 levels [2]	levels of mature Nicastrin [3]	reduction of Pen-2 levels [4]	Aph-1 levels [5]	turnover of PS2 NTF [6]
OO [H2O2]	approximately 30%					
UBQLN: ubiquilin protein overexpressed from cDNA plasmids, isoform not specified at the place		increases FL PS2 levels dramatically	decreased	2 fold	remain steady	no significant difference
